Literature values in patent US20100028912A1, “IMAGING USING RADIOACTIVE MONOCATIONS IN COMBINATION WITH A RECEPTOR BINDING LIGAND THAT STIMULATES THE INFLUX OF CATIONS” (BRACCO IMAGING S.P.A., priority 2006, published 2010).

Key:
[1] = tested on: Na+-K+ pump; conditions: guinea pig pancreatic acinar cells in vitro
[2] = tested on: quiescent Swiss 3T3 cells; conditions: cells treated with Na+/K+ ATPase pump inhibitor
[3] = tested on: rat vascular smooth muscle cells; conditions: rat vascular smooth muscle cells in culture
[4] = tested on: Na+-K+-2Cl- cotransporter (NKCC); conditions: acute cell exposure; rat L6 skeletal muscle cells
[5] = tested on: guinea pig tracheal smooth muscle cells; conditions: cultured guinea pig tracheal smooth muscle cells
[6] = tested on: alpha(1)-adrenoceptors (AR); conditions: 30 μM; isolated perfused rat hearts and isolated cardiomyocytes

In the case of CCCC(=O)Nc1ncnc2c1ncn2[C@@H]1O[C@@H]2COP(=O)(O)O[C@H]2[C@H]1OC(=O)CCC [dibutyryl cAMP], the “increase of Na+-K+ pump activity (as measured by ouabain-sensitive 86Rb+ uptake)” value (“increase of Na+-K+ pump activity” below) [1] is given as “approximately 40%”.
In the case of Cn1c(=O)c2[nH]cnc2n(C)c1=O [theophylline], the “increase of Na+-K+ pump activity” value [1] is listed as “approximately 40%”.
For CSCC[C@H](NC(=O)[C@H](Cc1ccc(OS(=O)(=O)O)cc1)NC(=O)[C@@H](N)CC(=O)O)C(=O)NCC(=O)N[C@@H](Cc1c[nH]c2ccccc12)C(=O)N[C@@H](CCSC)C(=O)N[C@@H](CC(=O)O)C(=O)N[C@@H](Cc1ccccc1)C(N)=O [CCK-8, cholecystokinin octapeptide], the “stimulation of ouabain-sensitive 86Rb+ uptake” value [1] is listed as “approximately 60%”.
In the case of C[C@@H]1O[C@@H](O[C@H]2C[C@@H](O)[C@]3(CO)[C@H]4[C@H](O)C[C@]5(C)[C@@H](C6=CC(=O)OC6)CC[C@]5(O)[C@@H]4CC[C@]3(O)C2)[C@H](O)[C@H](O)[C@H]1O [ouabain], the “effect on bombesin stimulation of 86Rb+ uptake” value [2] is given as “virtually abolished”.
In the case of Platelet-derived growth factor, the “influx of 86Rb” value [3] is given as “acute increase”.
In the case of insulin, the “stimulation of NKCC-mediated 86Rb+ influx” value [4] is given as ~1.6 fold.
For C[N+](C)(C)CCOC(N)=O [Carbachol], the “stimulation of ouabain-sensitive 86Rb+ uptake” value [1] is given as “approximately 60%”.
In the case of NCCc1c[nH]c2ccc(O)cc12 [Serotonin, 5-hydroxytryptamine], the “uptake of 86Rb+” value [5] is listed as “increases”.
In the case of Secretin, the “increase of Na+-K+ pump activity” value [1] is listed as “approximately 40%”.
For CNC[C@H](O)c1cccc(O)c1 [phenylephrine], the “86Rb+ influx into myocardial cells” value [6] is given as “increased”.
